From US4287206A, “Halogen derivatives of 8-hydroxycarboxylic acids; the processes for their preparation and medicaments in which they are present” (priority 1978, dated 1981) come the findings set out here.

For data set [1], the system named is rats. As to the kind of experiment: Influence of alpha-methyltyrosine on the stereotypies caused in rats. Type of data set: in vivo. As for the experimental part: (§1) The tests were carried out on batches of 6 rats for each dose; immediately after the oral or intraperitoneal administration, the animals are placed in individual, transparent plastic 20×10×10 cm boxes provided with a pierced stainless steel lid. The stereotyped movements are rated from 0 to 3, in accordance with the method described by Simon and Chermat (J. Pharmacol. (Paris), 1972, 3, 235-238) every 10 minutes until they disappear in all the animals. The detailed curves are plotted and the surface area of the curve is calculated as described in the above reference.
(b) Influence of alpha-methyltyrosine
At time 0, the animals receive, by intraperitoneal administration, either distilled water or alphamethyltyrosine at a dose of 64 mg.kg^-1; after 150 minutes, they receive, by intraperitoneal administration, the medicament according to the invention, obtained in accordance with Example III, at a dose of 8 mg.kg^-1.
The animals are observed under the conditions described above in the study of the stereotypies in rats.

In data set [2] the test system is rats. As to the kind of experiment: Study of the stereotypies in rats. Type of data set: in vivo. Particulars: comparison of isomers, 32 mg/kg administered orally, schematic grades, 32 mg/kg. As for the experimental part: Study of the stereotypies in rats
as §1

Data set [3] relates to mice. As to the kind of experiment: Anti-reserpine activity in mice (reserpine hypothermia). Particulars: for Rectal temperatures °C. ± SD: Table IIb, reserpine 2.5 mg.kg^-1 i.p. 4 h before. Type of data set: in vivo. As to the method: Anti-reserpine activity in mice
At time 0, the mice receive reserpine (2.5 mg.kg^-1) by intraperitoneal administration.
After 4 hours, when the hypothermia is significant (30 to 31°C.), the substance to be studied is administered intraperitoneally or orally. The rectal temperature is measured, using a probe, carrying a thermoelectric couple, inserted to a constant depth, every 30 minutes for 2 hours.

Data set [4] concerns mice. As to the kind of experiment: Anti-apomorphine activity in mice (hypothermia caused by apomorphine). The note with it: comparison of isomers; 32 mg/kg administered orally; schematic grades; listed as α diastereoisomer, 32 mg/kg. The data set is classed as in vivo.
Data set [5] relates to mice. As to the kind of experiment: Motor activity in mice (activity meters with photoelectric cells). The note with it: comparison of isomers; 32 mg/kg administered orally; schematic grades; listed as α diastereoisomer, 32 mg/kg. Type of data set: in vivo. As to the method: The motor activity was determined with the aid of activity meters having photoelectric cells (Boissier and Simon, Arch. int. Pharmacodyn. 1965, 158, 212-221). A minimum of 10 animals was always used per batch.
The mice are placed in the activity meter just after the oral or intraperitoneal administration of the product acccording to the invention, obtained in accordance with Example I. The motor activity is measured as from the introduction into the activity meter up to the 60th minute. The counters are read after 30 minutes, then reset to 0 and read every 10 minutes for 30 minutes.

For data set [6], the system named is rats. As to the kind of experiment: Influence of pimozide on the stereotypies caused in rats. Type of data set: in vivo. As for the experimental part: as §1
Research into the antagonistic effects of the stereotypies caused in rats by the medicament according to the invention
(a) Influence of pimozide
At time 0, pimozide (1 mg.kg^-1) or distilled water is administered intraperitoneally; after 30 minutes, all the animals receive, by intraperitoneal administration, the medicament according to the invention, obtained in accordance with Example III (8 mg.kg^-1). The stereotypies are assessed as described above. The surface area of the curve of the stereotypies is calculated.

Data set [7] has as its system mice. As to the kind of experiment: Action on the toxicity of yohimbine to mice. Type of data set: in vivo. Particulars: Table Vb, yohimbine hydrochloride 25 mg.kg^-1 s.c. As to the method:
Action on the toxicity of yohimbine to mice
At time 0, the mice receive, by oral administration, either distilled water or the medicament according to the invention; after 30 minutes, yohimbine hydrochloride (25 mg.kg^-1) is administered subcutaneously to the mice. The mortality is followed every hour for 4 hours and then recorded after 24 hours.

Data set [8] can be described thus: Determination of the acute toxicity to mice (BEHRENS and KARBER). The note with it: mouse, in vivo. As to the method:
All the experiments reported below were carried out on male rats having a weight of between 170 and 220 g (Wistar AF strain) and male mice having a weight of between 18 and 23 g (Swiss NMRI strain), unless otherwise stated in the following text.
Determination of the acute toxicity to mice
Method used: BEHRENS and KARBER

Where a name gives a salt, the structure may show the parent alone. Read-outs that look alike come from different tables or passages of the source.

With `CC1CC(c2ccc(Cl)cc2)C(c2ccccc2)C(=O)O1` (stereo not drawn) [Example III, Trans-4-(4'-chlorophenyl)-6-methyl-3-phenyl-3,4,5,6-tetrahydropyrone-2, IIIα], the “surface area of the curve of the stereotypies, medicament by itself” value in the data set with rats [1] (8 mg.kg^-1 intraperitoneal) and with rats [6] (8 mg.kg^-1 intraperitoneal) was 63 throughout. Also, in the data set on rats [1] (8 mg.kg^-1 intraperitoneal, 150 min after alpha-methyltyrosine 64 mg.kg^-1 intraperitoneal), the “surface area of the curve of the stereotypies, medicament + alpha-methyltyrosine” value was found to be 60.8. Further, the “Stereotypy-forming action on rats” value was 0 in the data set on rats [2] (listed as 100% of α) and “virtually disappears” with rats [2] (listed as α diastereoisomer). In addition, the Anti-reserpine action entry with mice [3] (comparison of isomers, 32 mg/kg administered orally, schematic grades, listed as α diastereoisomer, 32 mg/kg) is on record as “less significant”. Further, the Anti-apomorphine action result with mice [4] was “persists”. Further, the “Increase in the motor activity in mice” value in the data set with mice [5] is “less significant”. Moreover, the “surface area of the curve of the stereotypies, medicament administered after pimozide” value in the data set with rats [6] (8 mg.kg^-1 intraperitoneal, 30 min after pimozide 1 mg.kg^-1 intraperitoneal) is reported as 17.
Turning to `C[C@](N)(Cc1ccc(O)cc1)C(=O)O` [alpha-methyltyrosine, reference compound], in the data set with rats [1] (alpha-methyltyrosine 64 mg.kg^-1 i.p. 150 min before Example III 8 mg.kg^-1 i.p.), the “effect of pre-treatment with alpha-methyltyrosine on the stereotypies caused by the medicament” value is “virtually unmodified”.
Turning to `O=c1[nH]c2ccccc2n1C1CCN(CCCC(c2ccc(F)cc2)c2ccc(F)cc2)CC1` [pimozide, reference compound], in the data set with rats [6] (pimozide 1 mg.kg^-1 i.p. 30 min before Example III 8 mg.kg^-1 i.p.), the “effect of pimozide on the stereotypies caused by the medicament” value is “very significantly antagonizes the stereotypies”.
Turning to `CC(O)CC(c1ccc(Cl)cc1)C(C(=O)O)c1ccccc1` (stereo not drawn) [product IV, sodium salt of 3-(4'-chlorophenyl)-5-hydroxy-2-phenylhexanoic acid], the “Mortality in % after the administration of yohimbine” value (“Mortality in %” for short) in the data set with mice [7] (2 mg/kg administered orally, 4 hours) is on record as 10%; in the data set on mice [7] (2 mg/kg administered orally, 24 hours), 10%; in the data set on mice [7] (4 mg/kg administered orally, 4 hours), 20%; in the data set on mice [7] (4 mg/kg administered orally, 24 hours) it was 20%; in the data set with mice [7] (8 mg/kg administered orally, 4 hours), 30%; in the data set on mice [7] (8 mg/kg administered orally, 24 hours), 30%. For the same compound, the “Mortality in %” value in the data set with mice [7] (16 mg/kg administered orally, 4 hours) is listed as 70%; in the data set on mice [7] (16 mg/kg administered orally, 24 hours) it was 70%; in the data set with mice [7] (32 mg/kg administered orally, 4 hours), 80%; in the data set with mice [7] (32 mg/kg administered orally, 24 hours) it was 80%; in the data set with mice [7] (64 mg/kg administered orally, 4 hours), 100%; in the data set on mice [7] (64 mg/kg administered orally, 24 hours), 100%. The “Mortality in %” value in the data set with mice [7] (128 mg/kg administered orally, 4 hours) is reported as 80%; in the data set on mice [7] (128 mg/kg administered orally, 24 hours), 80%; in the data set with mice [7] (256 mg/kg administered orally, 4 hours), 100%; in the data set with mice [7] (256 mg/kg administered orally, 24 hours), 100%. For the same compound, the “Rectal temperatures °C. ± SD” value in the data set on mice [3] (8 mg/kg oral, 30 min) is 30.9 ± 0.36 °C; in the data set with mice [3] (8 mg/kg oral, 60 min) it was 32.0 ± 0.56 °C; in the data set with mice [3] (8 mg/kg oral, 90 min) it was 32.2 ± 0.57 °C; with mice [3] (8 mg/kg oral, 120 min), 33.2 ± 0.56 °C; in the data set on mice [3] (16 mg/kg oral, 30 min), 31.1 ± 0.39 °C; in the data set on mice [3] (16 mg/kg oral, 60 min), 32.5 ± 0.60 °C. The “Rectal temperatures °C. ± SD” value in the data set on mice [3] (16 mg/kg oral, 90 min) was 32.7 ± 0.51 °C; with mice [3] (16 mg/kg oral, 120 min) it was 33.1 ± 0.43 °C; with mice [3] (32 mg/kg oral, 30 min), 31.3 ± 0.31 °C; with mice [3] (32 mg/kg oral, 60 min) it was 33.0 ± 0.44 °C; in the data set on mice [3] (32 mg/kg oral, 90 min) it was 33.7 ± 0.41 °C; in the data set with mice [3] (32 mg/kg oral, 120 min), 33.2 ± 0.38 °C. The “Rectal temperatures °C. ± SD” value in the data set with mice [3] (64 mg/kg oral, 30 min) amounted to 32.8 ± 0.40 °C; with mice [3] (64 mg/kg oral, 60 min), 34.3 ± 0.32 °C; with mice [3] (64 mg/kg oral, 90 min), 34.5 ± 0.38 °C; in the data set on mice [3] (64 mg/kg oral, 120 min), 34.4 ± 0.41 °C. For the same compound, the LD50 in data set [8] (ip, intraperitoneal, read-out: LD50 (intraperitoneal administration)) was 160 mg/kg; in data set [8] (oral, read-out: LD50 (oral administration)), 310 mg/kg.
